# From patent publication US9821004B2, “Inhibition of a lncRNA for treatment of melanoma” (VIB VZW, priority 2013, dated 2017)
# Tests used:
# [1] = system: BRAFV600E human melanoma cell line; test: Apoptosis (Annexin-5-positive cells by FACS) after gapmer transfection plus BRAFV600E-inhibitor; format: cell-based; details: gapmer 3 transfection; 24 hours after exposure to the BRAFV600E-inhibitor, 48 hours after transfection, FIG. 16
# Experimental: Apoptosis was measured by quantification of Annexin-5-positive cells by FACS 24 hours after exposure to the BRAFV600E-inhibitor (and 48 hours after transfection). Representative pictures of the cells are shown.
# Importantly, knock-down of LINC01212 sensitizes BRAFV600E-melanoma cells to a BRAF-inhibitor currently used in the clinic, […] (FIG. 16).
# [2] = system: BRAFV600E-positive melanomas; details: patients with BRAFV600E-positive melanomas; cited from earlier work
smiles,measurement,setting,value
CCCS(=O)(=O)Nc1ccc(F)c(C(=O)c2c[nH]c3ncc(-c4ccc(Cl)cc4)cc23)c1F [PLX4032],sensitization of BRAFV600E-melanoma cells to BRAF-inhibitor by LINC01212 knock-down (apoptosis),[1],sensitizes
same,anti-tumor response rate,[2],80%
